Test results taken from patent US11390604B2 (Hoffmann-La Roche Inc., priority 2019, dated 2022).
Counter-ions that a name gives are not always drawn.

test system: Acinetobacter baumannii ATCC 17961; experiment: Antimicrobial susceptibility testing: 90% growth inhibitory concentration (IC90) determination; assay type: cell-based; conditions: ATCC17961, Acinetobacter baumannii ATCC 17961, Iso-Sensitest broth, read-out: ATCC 17961 IC90
How it was run: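 Broth microdilution in Iso-Sensitest medium, twofold series (e.g. 50 to 0.097 μM final), ~5×10^5 CFU/ml inoculum, 35±2 °C. OD600 read every 20 min over 16 h. IC90 derived from growth inhibition during logarithmic phase.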

CCc1cc(NC(=O)c2ncc(-c3cn(Cc4cccnc4)nc3C(F)(F)F)n2C)ccc1C(=O)N1CCN(C(=O)C2(O)CCNCC2)CC1 [Example 160, N-[3-ethyl-4-[4-(4-hydroxypiperidine-4-carbonyl)piperazine-1-carbonyl]phenyl]-1-methyl-5-[1-(pyridin-3-ylmethyl)-3-(trifluoromethyl)pyrazol-4-yl]imidazole-2-carboxamide;formic acid] and CCc1cc(NC(=O)c2ncc(-c3cn(Cc4cccnc4)nc3C(F)(F)F)n2C)ccc1C(=O)N1CCN(C(=O)[C@@H]2CCNC2)CC1 [Example 161, N-[3-ethyl-4-[4-[(3R)-pyrrolidine-3-carbonyl]piperazine-1-carbonyl]phenyl]-1-methyl-5-[1-(pyridin-3-ylmethyl)-3-(trifluoromethyl)pyrazol-4-yl]imidazole-2-carboxamide;formic acid] are within 1.5-fold of each other in IC90: 1500 nM for the first, 1280 nM for the second.

Compared with CCc1cc(NC(=O)c2ncc(-c3cn(Cc4cccnc4)nc3C(F)(F)F)n2C)ccc1C(=O)N1CCN(C(=O)NCC2(O)CNC2)CC1 [Example 162, 4-[2-ethyl-4-[[1-methyl-5-[1-(pyridin-3-ylmethyl)-3-(trifluoromethyl)pyrazol-4-yl]imidazole-2-carbonyl]amino]benzoyl]-N-[(3-hydroxyazetidin-3-yl)methyl]piperazine-1-carboxamide;formic acid], CCn1cc(-c2cnc(C(=O)Nc3ccc(C(=O)N4CCN(C(=O)N[C@H]5C[C@@H](N)C5)CC4)c(Cl)c3)n2C)c(C(F)(F)F)n1 [Example 168, rac-N-((1s,3s)-3-aminocyclobutyl)-4-(2-chloro-4-(5-(1-ethyl-3-(trifluoromethyl)-1H-pyrazol-4-yl)-1-methyl-1H-imidazole-2-carboxamido)benzoyl)piperazine-1-carboxamide Hydrochloride] is 4.2-fold lower in IC90: 1470 nM for the first, 347 nM for the second.

Compared with CCc1cc(NC(=O)c2ncc(-c3cn(CC#N)nc3C(F)(F)F)n2C)ccc1C(=O)NCCOCC(C)(C)N [Example 170, N-(4-((2-(2-amino-2-methylpropoxy)ethyl)carbamoyl)-3-ethylphenyl)-5-(1-(cyanomethyl)-3-(trifluoromethyl)-1H-pyrazol-4-yl)-1-methyl-1H-imidazole-2-carboxamide], C=C(F)Cn1cc(-c2cnc(C(=O)Nc3ccc(C(=O)NCCCCCN)c(Cl)c3)n2C)c(C(F)(F)F)n1 [Example 185, N-(4-((5-aminopentyl)carbamoyl)-3-chlorophenyl)-5-(1-(2-fluoroallyl)-3-(trifluoromethyl)-1H-pyrazol-4-yl)-1-methyl-1H-imidazole-2-carboxamide hydrochloride] is 1.6-fold lower in IC90: 234 nM for the first, 148 nM for the second.

C=Cn1cc(-c2cnc(C(=O)Nc3ccc(C(=O)N4CCN(C(=O)NC5CNC5)CC4)c(Cl)c3)n2C)c(C(F)(F)F)n1 [Example 171, N-(azetidin-3-yl)-4-(2-chloro-4-(1-methyl-5-(3-(trifluoromethyl)-1-vinyl-1H-pyrazol-4-yl)-1H-imidazole-2-carboxamido)benzoyl)piperazine-1-carboxamide] and C=C(F)Cn1cc(-c2cnc(C(=O)Nc3ccc(C(=O)N[C@H]4[C@@H]5CN(C(=O)N[C@@H]6CNC[C@H]6O)C[C@@H]54)c(Cl)c3)n2C)c(C(F)(F)F)n1 [Example 176, (1R,5S,6s)-6-(2-chloro-4-(5-(1-(2-fluoroallyl)-3-(trifluoromethyl)-1H-pyrazol-4-yl)-1-methyl-1H-imidazole-2-carboxamido)benzamido)-N-(trans-4-hydroxypyrrolidin-3-yl)-3-azabicyclo[3.1.0]hexane-3-carboxamide Formate] are within 1.5-fold of each other in IC90: 207 nM for the first, 155 nM for the second.

First: Cn1c(-c2cn(C3CC3(F)F)nc2C(F)(F)F)cnc1C(=O)Nc1ccc(C(=O)N[C@H]2[C@@H]3CN(C(=O)C4CCNCC4)C[C@@H]32)c(Cl)c1 (stereo partly drawn) [Example 172, N-(3-chloro-4-(((1R,5S,6s)-3-(piperidine-4-carbonyl)-3-azabicyclo[3.1.0]hexan-6-yl)carbamoyl)phenyl)-5-(1-(2,2-difluorocyclopropyl)-3-(trifluoromethyl)-1H-pyrazol-4-yl)-1-methyl-1H-imidazole-2-carboxamide formate]
Second: Cn1c(-c2cn(C3CCC3)nc2C(F)(F)F)cnc1C(=O)Nc1ccc(C(=O)N[C@H]2[C@@H]3CN(C(=O)C4CCNCC4)C[C@@H]32)c(Cl)c1 [Example 173, N-(3-chloro-4-(((1R,5S,6s)-3-(piperidine-4-carbonyl)-3-azabicyclo[3.1.0]hexan-6-yl)carbamoyl)phenyl)-5-(1-cyclobutyl-3-(trifluoromethyl)-1H-pyrazol-4-yl)-1-methyl-1H-imidazole-2-carboxamide formate]
The IC90 of the first is 1.6-fold lower: 146 nM for the first, 234 nM for the second.

Cn1c(-c2cn(CC3CCC3)nc2C(F)(F)F)cnc1C(=O)Nc1ccc(C(=O)N[C@H]2[C@@H]3CN(C(=O)C4CCNCC4)C[C@@H]32)c(Cl)c1 [Example 174, N-(3-chloro-4-(((1R,5S,6s)-3-(piperidine-4-carbonyl)-3-azabicyclo[3.1.0]hexan-6-yl)carbamoyl)phenyl)-5-(1-(cyclobutylmethyl)-3-(trifluoromethyl)-1H-pyrazol-4-yl)-1-methyl-1H-imidazole-2-carboxamide formate] and Cn1c(-c2cn(CC#N)nc2C(F)(F)F)cnc1C(=O)Nc1ccc(C(=O)N[C@H]2[C@@H]3CN(C(=O)N[C@@H]4CNC[C@H]4O)C[C@@H]32)c(Cl)c1 [Example 175, (1R,5S,6s)-6-(2-chloro-4-(5-(1-(cyanomethyl)-3-(trifluoromethyl)-1H-pyrazol-4-yl)-1-methyl-1H-imidazole-2-carboxamido)benzamido)-N-(trans-4-hydroxypyrrolidin-3-yl)-3-azabicyclo[3.1.0]hexane-3-carboxamide Formate] are within 1.5-fold of each other in IC90: 250 nM for the first, 330 nM for the second.

First: Cn1c(-c2cn(CC(F)F)nc2C(F)(F)F)cnc1C(=O)Nc1ccc(C(=O)N[C@H]2[C@@H]3CN(C(=O)N[C@H]4C[C@@H](N)C4)C[C@@H]32)c(Cl)c1 [Example 177, (1R,5S,6s)-N-(cis-3-aminocyclobutyl)-6-(2-chloro-4-(5-(1-(2,2-difluoroethyl)-3-(trifluoromethyl)-1H-pyrazol-4-yl)-1-methyl-1H-imidazole-2-carboxamido)benzamido)-3-azabicyclo[3.1.0]hexane-3-carboxamide]
Second: Cn1c(-c2cn([C@@H]3CC3(F)F)nc2C(F)(F)F)cnc1C(=O)Nc1ccc(C(=O)N[C@H]2[C@@H]3CN(C(=O)N[C@@H]4CNC[C@H]4O)C[C@@H]32)c(Cl)c1 [Example 181, (1S,5R)-6-[[2-chloro-4-[[5-[1-[(1R)-2,2-difluorocyclopropyl]-3-(trifluoromethyl)pyrazol-4-yl]-1-methyl-imidazole-2-carbonyl]amino]benzoyl]amino]-N-[(3R,4R)-4-hydroxypyrrolidin-3-yl]-3-azabicyclo[3.1.0]hexane-3-carboxamide; Hydrochloride]
The IC90 of the first is 3.6-fold higher: 229 nM for the first, 64 nM for the second.

Cn1c(-c2cn(C3CC3(F)F)nc2C(F)(F)F)cnc1C(=O)Nc1ccc(C(=O)NCC2(N)CC2)c(Cl)c1 (centres unmarked) [Example 178, N-(4-(((1-aminocyclopropyl)methyl)carbamoyl)-3-chlorophenyl)-5-(1-(2,2-difluorocyclopropyl)-3-(trifluoromethyl)-1H-pyrazol-4-yl)-1-methyl-H-imidazole-2-carboxamide Formate] and Cn1c(-c2cn([C@H]3CC3(F)F)nc2C(F)(F)F)cnc1C(=O)Nc1ccc(C(=O)N[C@H]2[C@@H]3CN(C(=O)N[C@@H]4CNC[C@H]4O)C[C@@H]32)c(Cl)c1 [Example 182, (1S,5R)-6-[[2-chloro-4-[[5-[1-[(1S)-2,2-difluorocyclopropyl]-3-(trifluoromethyl)pyrazol-4-yl]-1-methyl-imidazole-2-carbonyl]amino]benzoyl]amino]-N-[(3R,4R)-4-hydroxypyrrolidin-3-yl]-3-azabicyclo[3.1.0]hexane-3-carboxamide] are within 1.5-fold of each other in IC90: 86 nM for the first, 110 nM for the second.

In the case of Cn1c(-c2cn(C3CC3(F)F)nc2C(F)(F)F)cnc1C(=O)Nc1ccc(C(=O)N[C@H]2[C@@H]3CN(C(=O)N4CCNCC4)C[C@@H]32)c(Cl)c1 (stereo partly drawn) [Example 184, N-(3-chloro-4-(((1R,5S,6s)-3-(piperazine-1-carbonyl)-3-azabicyclo[3.1.0]hexan-6-yl)carbamoyl)phenyl)-5-(1-(2,2-difluorocyclopropyl)-3-(trifluoromethyl)-1H-pyrazol-4-yl)-1-methyl-1H-imidazole-2-carboxamide], the IC90 is reported as 136 nM.

same assay, conditions: Acinetobacter baumannii, ATCC17961, read-out: ATCC 17961 IC90, Acinetobacter baumannii ATCC 17961, Iso-Sensitest broth

Compared with Cn1c(-c2cn(CC3CC3)nc2C(F)(F)F)cnc1C(=O)Nc1ccc(C(=O)N2CCN(C(=O)N[C@H]3C[C@@H](N)C3)CC2)c(Cl)c1 [Example 169, rac-N-((1s,3s)-3-aminocyclobutyl)-4-(2-chloro-4-(5-(1-(cyclopropylmethyl)-3-(trifluoromethyl)-1H-pyrazol-4-yl)-1-methyl-1H-imidazole-2-carboxamido)benzoyl)piperazine-1-carboxamide Hydrochloride], Cn1c(-c2cn(CCF)nc2C(F)(F)F)cnc1C(=O)Nc1ccc(C(=O)N2CCN(C(=O)C3(O)CCCNC3)CC2)c(Cl)c1 (centres unmarked) [Example 180, N-[3-chloro-4-[4-(3-hydroxypiperidine-3-carbonyl)piperazine-1-carbonyl]phenyl]-5-[1-(2-fluoroethyl)-3-(trifluoromethyl)pyrazol-4-yl]-1-methylimidazole-2-carboxamide; Trihydrochloride] is 1.6-fold higher in IC90: 245 nM for the first, 397 nM for the second.

Cn1c(-c2cn([C@H]3CC3(F)F)nc2C(F)(F)F)cnc1C(=O)Nc1ccc(C(=O)N[C@H]2[C@@H]3CN(C(=O)N[C@H]4CNC[C@@H]4O)C[C@@H]32)c(Cl)c1 [Example 183, (1S,5R)-6-[[2-chloro-4-[[5-[1-[(1S)-2,2-difluorocyclopropyl]-3-(trifluoromethyl)pyrazol-4-yl]-1-methyl-imidazole-2-carbonyl]amino]benzoyl]amino]-N-[(3S,4S)-4-hydroxypyrrolidin-3-yl]-3-azabicyclo[3.1.0]hexane-3-carboxamide; Hydrochloride] showed an IC90 of 170 nM.
